Entries after “also recorded” stand apart in the source; their conditions may differ. Read-outs that look alike come from different tables or passages of the source.
Columns and labels:
rat A3 receptor = biological target: T1, rat A3 receptor (Rattus norvegicus, UniProt P28647); experiment: Binding of [35S]GTP-γ-S to rat RBL-2H3 mast cell membranes; type: biochemical; details: for effect on binding of [35S]GTP-γ-S: FIG. 1, rat RBL-2H3 mast cell membranes
T1 sequence (P28647 1-320): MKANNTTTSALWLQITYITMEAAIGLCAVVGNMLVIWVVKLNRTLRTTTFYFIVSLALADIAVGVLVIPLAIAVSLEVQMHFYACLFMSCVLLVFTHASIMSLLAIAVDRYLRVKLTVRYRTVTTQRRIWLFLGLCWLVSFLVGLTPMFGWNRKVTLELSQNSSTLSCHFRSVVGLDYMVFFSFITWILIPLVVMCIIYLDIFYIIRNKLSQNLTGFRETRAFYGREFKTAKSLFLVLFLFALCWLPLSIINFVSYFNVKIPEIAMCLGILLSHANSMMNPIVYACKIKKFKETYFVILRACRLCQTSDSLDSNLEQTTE
Protocol: The binding for [^35 S]GTP-y-S (Ameersham, Chicago Ill., specific activity 1275 Ci/mmol) was carried out using rat RBL-2H3 mast cell membranes by the general method of Lorenzen et al.^47 Membranes were suspended in a buffer containing 50 mM Tris, 3 units/mL adenosine deaminase, 100 mM NaCl, and 10 mM MgCl2 (pH 7.4) and a protein concentration of 1 to 10 μg per tube. The membrane suspension was preincubated with […], R-PIA and/or riboflavin in a final volume of 125 μL buffer at 30° C. for 60 min and then transferred to ice for 20 min. [^35 S]GTP-γy-S was added to a final concentration of 0.1 nM in a total volume of 500 μL and the mixture was incubated for 30 min at 30° C. Non-specific binding was determined in the presence of 10 μM GTP-γ-S (Sigma, St. Louis Mo.). Incubation of the reaction mixture was terminated by filtration over a GF/B glass filter using a Brandell cell harvester and washed with the same buffer.
The assay involved the agonist-induced inhibition of binding of guanine nucleotide to rat RBL-2H3 mast cell membranes, which contain a high density of A3 receptors.

[1] = biological target: T2, rat brain A2A adenosine receptor (Rattus norvegicus, UniProt P30543); experiment: Displacement of specific [3H]CGS 21680 binding in rat striatal membranes
T2 construct: A2A receptors for rat striatal membranes; from tissue; host or cells: rat striatal membranes
Protocol: For binding experients, membrane homogenates were frozen and stored at -20° C. for greater than 2 months. Adenosine deaminase (ADA) was purchased from Boehringer Mannheim (Indianapolis, Ind.).
(§1) Nonspecific binding was determined in the presence of 200 μM NECA. […] Additional deaminase was not added during incubation with the radioligand.

[2] = biological target: T3, rat brain A1 adenosine receptor (Rattus norvegicus, UniProt P25099)
T3 sequence (P25099 1-326): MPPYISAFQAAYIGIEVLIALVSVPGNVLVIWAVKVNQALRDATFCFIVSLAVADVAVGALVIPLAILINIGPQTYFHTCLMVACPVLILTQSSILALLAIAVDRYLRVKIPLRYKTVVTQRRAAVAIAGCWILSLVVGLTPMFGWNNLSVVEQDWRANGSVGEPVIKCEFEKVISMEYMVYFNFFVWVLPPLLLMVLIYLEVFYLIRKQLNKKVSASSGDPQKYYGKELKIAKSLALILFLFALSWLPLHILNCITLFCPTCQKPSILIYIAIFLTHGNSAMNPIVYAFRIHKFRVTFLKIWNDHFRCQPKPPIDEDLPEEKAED
Protocol: (§2) Procedures for preparing rat brain membranes and Chinese hamster ovary (CHO) cell membranes were as reported^30, 38, 44. For binding experients, membrane homogenates were frozen and stored at -20° C. for greater than 2 months.
as §1

[3] = biological target: T4, rat A3 adenosine receptor (Rattus norvegicus, UniProt P28647);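 note: radioligand binding on membrane homogenates, 1 h incubation at 37 °C in duplicate, gamma counting of filter-bound radioactivity, nonspecific binding defined using 200 µM NECA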
T4 sequence (P28647 1-320): T1 sequence (P28647 1-320)
Protocol: (§3) Procedures for preparing rat brain membranes and Chinese hamster ovary (CHO) cell membranes were as reported^30, 38, 44. For binding experients, membrane homogenates were frozen and stored at -20° C. for greater than 2 months. Adenosine deaminase (ADA) was purchased from Boehringer Mannheim (Indianapolis, Ind.).
(§4) Inhibitors were routinely dissolved in DMSO. […] Incubations were carried out in duplicate for 1 h at 37° C., and were terminated by rapid filtration over Whatman GF/B filters using a Brandell cell harvester (Brandell, Gaithersburg, Md.). Tubes were washed three times with 3 mL of buffer. Radioactivity was determined in a Beckman gamma 5500B γ-counter.
as §1

[4] = biological target: T4, rat A3 adenosine receptor; details: for A1/A3: ratio of Ki (A1) to Ki (A3); for A1/A3 / A2A/A3: rat; for A2A/A3: ratio of Ki (A2A) to Ki (A3); for affinity and selectivity at A3 adenosine receptors: vs. A1 and A2 receptors
Protocol: as §3, §4, §1

[5] = biological target: T3, rat brain A1 adenosine receptor; experiment: Displacement of specific [3H]R-PIA binding in rat brain (cortical) membranes; details: read-out: Ki (A1)
Protocol: as §2, §1

[6] = biological target: T5, human A3 adenosine receptor (Homo sapiens, UniProt P0DMS8); experiment: Binding of [125I]-AB-MECA to HEK-293 cells stably expressing the human A3 receptor; details: read-out: affinity at human A3 adenosine receptors
T5 construct: expressed in transfected cells; host or cells: HEK-293 cells
T5 sequence (P0DMS8 1-318): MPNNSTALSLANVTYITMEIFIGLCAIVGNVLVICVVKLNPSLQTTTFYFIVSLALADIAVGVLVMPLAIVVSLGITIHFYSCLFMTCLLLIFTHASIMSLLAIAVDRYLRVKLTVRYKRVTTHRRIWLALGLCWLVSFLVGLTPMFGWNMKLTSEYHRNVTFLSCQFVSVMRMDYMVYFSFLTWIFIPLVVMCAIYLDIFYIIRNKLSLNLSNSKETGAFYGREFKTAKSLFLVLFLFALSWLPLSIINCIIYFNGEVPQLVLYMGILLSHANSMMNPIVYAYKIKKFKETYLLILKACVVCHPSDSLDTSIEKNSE
Excerpt: Inhibitors were routinely dissolved in DMSO.

[7] = biological target: T3, rat brain A1 adenosine receptor; experiment: biochemical
Protocol: as §2, §1

A3 receptor = details: background, cited from earlier work
[8] = rat striatal membranes, [3H]CGS 21680, Ki ± SEM, n = 3-6

T2 sequence (P30543 whole entry): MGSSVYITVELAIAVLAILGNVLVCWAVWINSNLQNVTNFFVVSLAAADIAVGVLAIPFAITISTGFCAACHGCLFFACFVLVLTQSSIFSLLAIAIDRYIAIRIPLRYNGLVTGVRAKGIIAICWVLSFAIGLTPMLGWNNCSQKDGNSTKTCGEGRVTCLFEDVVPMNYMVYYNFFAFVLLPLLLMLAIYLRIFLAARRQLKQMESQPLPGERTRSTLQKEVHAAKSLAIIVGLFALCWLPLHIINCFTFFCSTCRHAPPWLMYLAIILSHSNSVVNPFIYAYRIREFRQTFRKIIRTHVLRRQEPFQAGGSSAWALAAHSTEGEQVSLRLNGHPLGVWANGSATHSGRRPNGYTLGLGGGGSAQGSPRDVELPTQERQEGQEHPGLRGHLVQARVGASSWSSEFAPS

SMILES | Ki [1, 8] [nM] | Ki [2] [nM] | Ki [3] [nM] | A1/A3 [4] | A2A/A3 [4] | other results
CNC(=O)[C@H]1O[C@@H](n2cnc3c(NCc4cccc(I)c4)nc(Cl)nc32)[C@H](O)[C@@H]1O [Cl-IB-MECA, 2-chloro-N^6-(3-iodobenzyl)adenosine-5'-N-methyluronamide, reference compound] | – | – | – | – | – | effect on binding of [35S]GTP-γ-S (rat A3 receptor): increased binding of [^35 S]GTP-γ-S in a dose dependent manner
CCNC(=O)[C@H]1O[C@@H](n2cnc3c(NC(=O)c4ccc(-c5ccccc5)cc4)ncnc32)[C@H](O)[C@@H]1O [Compound 3a] | 3580 ± 850 | 5.92 ± 1.04 | 979 ± 22 | 0.006 | 3.65 | –
CCNC(=O)[C@H]1O[C@@H](n2cnc3c(NC(=O)Cc4ccc(Cl)cc4Cl)ncnc32)[C@H](O)[C@@H]1O [Compound 3b, N^6-(2,4-dichlorobenzyl-carbonylamino)-adenosine-5'-N-ethyluronamide] | – | 16 ± 3.3 | 167 ± 7 | 0.095 | 0.16 | Ki [1]: 26.6 ± 8.8 nM
CCNC(=O)[C@H]1O[C@@H](n2cnc3c(NC(=O)c4ccc(OC)cc4)ncnc32)[C@H](O)[C@@H]1O [Compound 3c] | 237 ± 46 | 86.4 ± 14.2 | 837 ± 142 | 0.10 | 0.28 | –
CCNC(=O)[C@H]1O[C@@H](n2cnc3c(NNC(=O)c4ccc(Cl)cc4)ncnc32)[C@H](O)[C@@H]1O [Compound 3d, N^6-(4-chlorophenyl-carbonylamino)-adenosine-5'-N-ethyluronamide] | – | – | – | 1.55 | 2.59 | Ki [1]: 1960 ± 300 nM; Ki [5]: 1170 ± 220 nM; Ki ([4]; read-out: Ki (A3)): 754 ± 132 nM
CCNC(=O)[C@H]1O[C@@H](n2cnc3c(NC(=O)c4ccccc4)ncnc32)[C@H](O)[C@@H]1O [Compound 3e] | 670 ± 211 | 252 ± 52 | 824 ± 126 | 0.30 | 0.81 | –
CCNC(=O)[C@H]1O[C@@H](n2cnc3c(NC(=O)NCc4ccccc4)ncnc32)[C@H](O)[C@@H]1O [Compound 3f, N^6-(benzylcarbamoylamino)-adenosine-5'-N-ethyluronamide] | 1790 ± 230 | 171 ± 15 | 38.3 ± 6.4 | 4.46 | 46.8 | –
CCNC(=O)[C@H]1O[C@@H](n2cnc3c(NC(=O)Nc4ccc(S(N)(=O)=O)cc4)ncnc32)[C@H](O)[C@@H]1O [Compound 3g, N^6-(4-sulfonamido-phenylcarbamoyl)-adenosine-5'-N-ethyluronamide] | 1180 ± 360 | 453 ± 141 | 9.73 ± 0.75 | 46.5 | 121.2 | Ki [6]: 56.1 ± 9.1 nM; effect on binding of [35S]GTP-γ-S (rat A3 receptor): about as effective as the potent A3 agonists I-AB-MECA and Cl-IB-MECA; also recorded: greater potency than NECA; also recorded: increased binding of [^35 S]GTP-γ-S in a dose dependent manner; agonism at rat A3 receptor (rat A3 receptor; functional assay, rat RBL-2H3 mast cell membranes): full agonist; Ki [4]: 9.7 to 107 nM; Ki ([4]; read-out: affinity at A3 receptors, rat A3, running text): 9.7 nM
CCNC(=O)[C@H]1O[C@@H](n2cnc3c(NC(=O)Nc4ccc(C(C)=O)cc4)ncnc32)[C@H](O)[C@@H]1O [Compound 3h, N^6-(4-acetyl-phenylcarbamoyl)-adenosine-5'-N-ethyluronamide] | 1050 ± 270 | 72.7 ± 11.8 | 20.9 ± 7.51 | 3.47 | 50.2 | Ki [4]: 9.7 to 107 nM; affinity and selectivity at A3 adenosine receptors [4]: relatively high affinity and selectivity at A3 adenosine receptors
CCNC(=O)[C@H]1O[C@@H](n2cnc3c(NC(=O)N[C@H](C)c4ccccc4)ncnc32)[C@H](O)[C@@H]1O [Compound 3i, N^6-((R)-α-phenylethylcarbamoyl)-adenosine-5'-N-ethyluronamide] | 279 ± 171 | 433 ± 171 | 16.3 ± 3.7 | 26.5 | 17.1 | –
CCNC(=O)[C@H]1O[C@@H](n2cnc3c(NC(=O)N[C@@H](C)c4ccccc4)ncnc32)[C@H](O)[C@@H]1O [Compound 3j, N^6-((S)-α-phenylethylcarbamoyl)-adenosine-5'-N-ethyluronamide] | 2970 ± 930 | 537 ± 33 | 319 ± 134 | 1.68 | 9.3 | affinity and selectivity at A3 adenosine receptors [4]: relatively high affinity and selectivity at A3 adenosine receptors
CCNC(=O)[C@H]1O[C@@H](n2cnc3c(NC(=O)Nc4cc(C)on4)ncnc32)[C@H](O)[C@@H]1O [Compound 3k, N^6-(5-methyl-isoxazol-3-yl-carbamoyl)-adenosine-5'-N-ethyluronamide] | 884 ± 232 | 146 ± 39 | 532 ± 240 | 0.27 | 1.66 | –
CCNC(=O)[C@H]1O[C@@H](n2cnc3c(NC(=O)Nc4nncs4)ncnc32)[C@H](O)[C@@H]1O [Compound 3l, N^6-(1,3,4-thiadiazol-2-yl-carbamoyl)-adenosine-5'-N-ethyluronamide] | 917 ± 254 | 208 ± 42 | 5550 ± 2800 | 0.037 | 0.16 | –
CCCOc1ccc(NC(=O)Nc2ncnc3c2ncn3[C@@H]2O[C@H](C(=O)NCC)[C@@H](O)[C@H]2O)cc1 [Compound 3m, N^6-(4-n-propoxy-phenylcarbamoyl)-adenosine-5'-N-ethyluronamide] | – | – | 107 ± 34 | 2.3 | 2.4 | Ki [7]: 257 ± 43 nM; Ki [4]: 9.7 to 107 nM; affinity and selectivity at A3 adenosine receptors [4]: relatively high affinity and selectivity at A3 adenosine receptors
CCNC(=O)[C@H]1O[C@@H](n2cnc3c(N(C(=O)Nc4ccc([N+](=O)[O-])cc4)C(=O)Nc4ccc([N+](=O)[O-])cc4)ncnc32)[C@H](O)[C@@H]1O [Compound 3n, N^6-bis-(4-nitrophenylcarbamoyl)-adenosine-5'-N-ethyluronamide] | 2530 ± 200 | – | – | – | – | Ki [5]: 89.1 ± 8.8 nM
CCNC(=O)[C@H]1O[C@@H](n2cnc3c(N(C(=O)Nc4ccc(Cl)cn4)C(=O)Nc4ccc(Cl)cn4)ncnc32)[C@H](O)[C@@H]1O [Compound 3o, N^6-bis-(5-chloro-pyridin-2-yl-carbamoyl)-adenosine-5'-N-ethyluronamide] | 799 ± 191 | 761 ± 187 | 5700 ± 100 | 0.13 | 0.14 | –
CNC(=O)[C@H]1O[C@@H](n2cnc3c(NCc4ccc(N)c(I)c4)ncnc32)[C@H](O)[C@@H]1O [I-AB-MECA, N^6-(4-amino-3-iodobenzyl)adenosine-5'-N-methyluronamide, reference compound] | – | – | – | – | – | effect on binding of [35S]GTP-γ-S (rat A3 receptor): increased binding of [^35 S]GTP-γ-S in a dose dependent manner
CNC(=O)[C@H]1O[C@@H](n2cnc3c(NCc4cccc(I)c4)ncnc32)[C@H](O)[C@@H]1O [IB-MECA, N^6-(3-iodobenzyl)adenosine-5'-N-methyluronamide] | – | – | – | – | – | behavioral effect (A3 receptor): induces behavioral depression; protection against cerebral ischemia (A3 receptor; chronic administration): protects against cerebral ischemia

From patent US6048865A, “N^6 -substituted-adenosine-5'-uronamides as adenosine receptor modulator” (priority 1998, dated 2000)
